Entries after “also recorded” stand apart in the source; their conditions may differ.

We go through 6 compounds from patent US6613757B1, “COMBINATION OF PROSTACYCLIN WITH AN ESTROGEN OR PROGESTIN FOR THE PREVENTION AND TREATMENT OF ATHEROSCLEROTIC VASCULAR DISEASE INCLUDING PREECLAMPSIA AND FOR THE TREATMENT OF HYPERTENSION, AND FOR HORMONE REPLACEMENT THERAPY” (Board of Regents, The University of Texas System, priority 1994, dated 2003).

Series [1] relates to preeclamptic rats (L-NAME). Nature of the series: Blood pressure in L-NAME-induced preeclampsia model, pregnant and postpartum rats. The format is in vivo, rat. The conditions noted are these: for post-partum increase in blood pressure: R 5020 5 mg/animal/day; for blood pressure in the postpartum period: preeclamptic rats, L-NAME 25 mg/animal/day s.c. infusion plus cicaprost. The method, then:
These symptoms are related to the decrease in vascular resistance and placental perfusion. […] Preeclampsia was induced with an nitric oxide inhibitor L-NAME (25 mg/animal/day, s.c. infusion).

For another series, the system named is pregnant guinea pigs. Nature of the series: Inhibition of nitric oxide synthesis during pregnancy in guinea pigs. The conditions noted are these: unreported studies. The format is in vivo, guinea pig. From the text:
There is also evidence that prostacyclin production is decreased in preeclampsia. In a normal pregnancy there is an approximately 5-10-fold increase in prostacyclin production compared to the non-pregnant state (Goodman 1982, Walsh 1985, Fitzgerald 1,987). In contrast, there is a decreased production of prostacyclin in maternal, placental and umbilical cord vessels and in placental cotyledons (Remuzzi 1980, […] 1984, Walsh 1985) in preeclampsia. An imbalance in the ratio of thromboxane A2 to prostacyclin in preeclampsia has been proposed as a major pathological mechanism in preeclampsia (Walsh 1988, Fitzgerald 1987, Friedman 1988). Other experimental studies (unreported) in pregnant rats and guinea pigs indicate that nitric oxide deficiency is the primary event in preeclampsia.

Another series relates to L-NAME-treated male rats. Nature of the series: L-NAME-induced hypertension in male rats. Type of series: in vivo, rat. The method, then:
(§1) FIG. 2 provides further evidence that progesterone can induce mechanisms which compensate the L-NAME-produced hypertension. This study was performed in male rats, showing pregnancy is not essential for this effect.

The next series deals with cholesterol-fed rabbits. The conditions noted are these: cited from earlier work.
For series [2] the following is noted: in vivo; cited from earlier work.
Series [3] concerns preeclamptic rats (L-NAME). Nature of the series: Fetal weight and fetal mortality in L-NAME-treated pregnant rats. The format is in vivo, rat. The conditions noted are these: iloprost plus L-NAME vs L-NAME-treated group.
From the text: The unexpected results of the studies described below indicate that the response of blood vessels to prostacyclins and subsequent blood pressure lowering effect is controlled by progesterone. […] These symptoms are related to the decrease in vascular resistance and placental perfusion. […] Thus, the condition of pregnancy and the progestin treatment highly increase the responsiveness of blood vessels to exogenous prostacyclin. The increased response of blood vessels results in the lowering of the effective dose of prostacyclin analogs and subsequently in the reduction of side effects.
as §1

Series [4] deals with microvascular arteriolar endothelium. The conditions noted are these: cited from earlier work.
For series [5] the following is noted: intravenous use; cited from earlier work.
In another series the test system is placental blood vessels. The conditions noted are these: in vitro; cited from earlier work.
In a further series the test system is sheep. The following applies: infusion; cited from earlier work.
Another series concerns humans. The following applies: infusion; cited from earlier work.
Series [6] concerns women with severe preeclampsia. The conditions noted are these: cited from earlier work.
Series [7] concerns cases of severe early-onset fetal growth retardation. The following applies: 2 cases, intravenous, 4 ng/kg/min; cited from earlier work.

On to `COC(=O)[C@@H](N)CCCNC(=N)N[N+](=O)[O-]` [L-NAME], for which the “signs and symptoms of preeclampsia (hypertension, proteinuria, fetal growth retardation)” value in series [1] (pregnant rats) is “caused the classical symptoms hypertension, proteinuria and fetal growth retardation; also recorded: produces signs and symptoms of preeclampsia”. The “classical symptoms hypertension, proteinuria and fetal growth retardation” value in the series with pregnant guinea pigs is “caused the classical symptoms hypertension, proteinuria and fetal growth retardation”.

Turning to `CCC(=O)[C@@]1(C)CC[C@H]2[C@@H]3CCC4=CC(=O)CCC4=C3CC[C@@]21C` [R 5020, promegestone], the “post-partum increase in blood pressure” value in [1] (iloprost plus L-NAME, FIG. 4) is “dramatically decrease the post-partum increase in blood pressure”; in series [1] (iloprost plus L-NAME, FIG. 4, listed as R5020), “restores the efficacy of iloprost/cicaprost to lower blood pressure”. Also, the “blood pressure in the postpartum period” value is recorded as “lowers blood pressure; also recorded: restores the postpartum decrease in the efficacy of cicaprost to lower blood pressure” in series [1] (FIG. 1) and “restores the efficacy of iloprost/cicaprost to lower blood pressure” in series [1] (FIG. 1, listed as R5020). In the series on L-NAME-treated male rats (male rats, 0.5 mg/animal/day s.c., FIG. 2), the L-NAME-induced hypertension entry is listed as “reduces the L-NAME-induced hypertension”.

With `CCC#CC[C@H](C)[C@H](O)C#C[C@@H]1[C@H]2C/C(=C/COCC(=O)O)C[C@H]2C[C@H]1O` [cicaprost], the “blood pressure during pregnancy (prepartum)” value in series [1] (cicaprost plus L-NAME, progesterone levels high, FIG. 1) is recorded as “greater in late pregnancy; also recorded: a fall in blood pressure”. Also, the blood pressure postpartum entry in series [1] (cicaprost plus L-NAME, progesterone levels low, FIG. 1) is “rapid increase in blood pressure; also recorded: an increase”. Besides, in the series with cholesterol-fed rabbits (oral, cholesterol-fed rabbits), the “aortic atheromatous plaque formation” value is recorded as “reduced aortic atheromatous plaque formation” and the “hypercholesterolemia-induced impairment of endothelium-dependent relaxation” value is “partially prevented hypercholesterolemia-induced impairment of endothelium-dependent relaxation”. Also, in the series on cholesterol-fed rabbits (oral, rabbits), the “hypercholesterolemia-induced impairment of coronary vasodilatation” value was “beneficial effect on the hypercholesterolemia-induced impairment of coronary vasodilatation”. The “hypercholesterolemia-induced platelet and neutrophil hyperactivity” value in the series on cholesterol-fed rabbits (rabbits) was “reduced hypercholesterolemia-induced platelet and neutrophil hyperactivity”. For the same compound, in series [2], the bioavailability result was “high bioavailability” and the duration of action entry is “prolonged duration of action”.

For the compound `CC#CCC(C)[C@H](O)/C=C/[C@@H]1[C@H]2C/C(=C/CCCC(=O)O)C[C@H]2C[C@H]1O` (stereo partly shown) [iloprost], the “L-NAME-induced hypertension during pregnancy” value in series [1] (iloprost plus L-NAME, progesterone levels high, FIG. 4) is listed as “greater in late pregnancy; also recorded: fully reverses the L-NAME-induced hypertension”. In addition, in series [3] (FIG. 5 lower panel), the L-NAME-induced fetal mortality entry was “reduces the L-NAME-induced fetal mortality; also recorded: fetal mortality decreased”. The “L-NAME-induced fetal growth retardation (fetal weight)” value in [3] (FIG. 5 upper panel) is “partially reverses the L-NAME-induced fetal growth retardation; also recorded: fetal weight increased”. For the same compound, in series [4], the “damage of microvascular arteriolar endothelium by cyclosporin” value is on record as “protect microvascular arteriolar endothelium from damage by cyclosporin”. Besides, in series [5], the systemic blood pressure entry is on record as “marked fall in systemic blood pressure”.

Take `CC(=O)[C@H]1CC[C@H]2[C@@H]3CCC4=CC(=O)CC[C@]4(C)[C@H]3CC[C@]12C` [progesterone]: the blood pressure entry in the series on L-NAME-treated male rats (L-NAME-treated male rats) is reported as “partially lowers blood pressure”.

As to `CCCCC[C@H](O)/C=C/[C@@H]1[C@H]2C/C(=C/CCCC(=O)O)O[C@H]2C[C@H]1O` [prostacyclin], the “relaxation of placental blood vessels” value with placental blood vessels is on record as “consistently relaxes placental blood vessels”. Also, in the series on sheep, the placental perfusion entry was “did not result in the increase in placental perfusion; also recorded: a decrease of placental perfusion”. Besides, in the series on humans, the placental perfusion result is on record as “did not result in the increase in placental perfusion”. Besides, in series [6] (7 women, 4-8 ng/kg/min i.v.), the babies survived is 4/7 and the “fetal effects during treatment” value is “Fetal bradycardia was observed; also recorded: two fetuses died during prostacyclin infusion”. Moreover, the “blood pressure during prostacyclin infusion” value in series [6] (7 women, 4-8 ng/kg/min, 5 h to 11 days) is “rapid decrease in blood pressure”. The uteroplacental blood flow entry in [6] (steal phenomenon) is on record as “decreased uteroplacental blood flow”. The “outcome of attempt to promote fetal growth” value in series [7] is “intrauterine death in each case”. The duration of action result in series [2] is given as “short duration of action”. The systemic blood pressure result in [5] was “marked fall in systemic blood pressure”.
